Measurements published in patent US20240166636A1, “CRYSTALLINE COMPOUNDS AND METHODS OF MAKING THE SAME” (Epizyme, Inc., priority 2019, published 2024).

How the values were obtained:
Type in all cases: physicochemical
[1] = Hygroscopicity (dynamic vapor sorption); details: compared to other salt forms of Compound I
Experimental: Dynamic Vapor Sorption (DVS) was measured on a VTI Model SGA-100 system. Measurement method: The relative humidity (RH) was changed in a controlled fashion, in 5% steps from 5.0% to 95.0% then back to 5.0% using the gravimetric vapor sorption system, and the weight percentage change (wt. %) of the sample at each stage was measured.

[2] = Intrinsic dissolution rate of polymorphs
[3] = Competitive slurry experiments, thermodynamically most stable form; details: 50/50% (w/w) mixture of Polymorph A and Polymorph B, slurried for several days, varying water content and temperature
Experimental: Several slurries were prepared, varying the water content and the temperature. […] As a result, the isolation temperature (e.g. in step b-2) was increased (e.g., from 15° C. to 22° C.) and the water content of the solvent system during the cooling crystallization was reduced (e.g., from 9.7% (v/v) to 9.0% (v/v)).

SMILES | hygroscopicity [1] | Intrinsic Dissolution Rate (IDR) [2] [mg/min/cm^2] | % Rate relative to From A ([2]; IDR relative to Polymorph A) [%] | thermodynamically most stable form as a function of temperature and water content in the solvent [3]
Br.CCN(c1cc(-c2ccc(CN3CCOCC3)cc2)cc(C(=O)NCc2c(C)cc(C)[nH]c2=O)c1C)C1CCOCC1 [Compound I hydrobromide, N-((4,6-dimethyl-2-oxo-1,2-dihydropyridin-3-yl)methyl)-5-(ethyl (tetrahydro-2H-pyran-4-yl)amino)-4-methyl-4′-(morpholinomethyl)-[1,1′-biphenyl]-3-carboxamide hydrobromide] | low hygroscopicity |  |  | 
CN(C)CCc1c[nH]c2cccc(OP(=O)(O)O)c12 [Polymorph A] |  | 7.6 | 100 | stable form at higher temperatures and lower water content
